We go through three compounds from ChEMBL document CHEMBL1201862, “PubChem BioAssay data set” (2004).

What is called AC50 is the concentration giving half of the maximal activity seen.

For experiment [1], the target named is ADP-ribosylation factor GTPase-activating protein 1 (Rattus norvegicus, UniProt Q62848). The experiment in a line: Fluorescence polarization-based biochemical high throughput dose response screening assay to identify inhibitors of ADP-ribosylation factor GTPase activating protein 1 (ARFGAP1). It is filed as functional.
Experiment [2] has as its target T1, Carboxy-terminal domain RNA polymerase II polypeptide A small phosphatase 1 (Homo sapiens, UniProt Q9GZU7).
T1 sequence (Q9GZU7 whole entry): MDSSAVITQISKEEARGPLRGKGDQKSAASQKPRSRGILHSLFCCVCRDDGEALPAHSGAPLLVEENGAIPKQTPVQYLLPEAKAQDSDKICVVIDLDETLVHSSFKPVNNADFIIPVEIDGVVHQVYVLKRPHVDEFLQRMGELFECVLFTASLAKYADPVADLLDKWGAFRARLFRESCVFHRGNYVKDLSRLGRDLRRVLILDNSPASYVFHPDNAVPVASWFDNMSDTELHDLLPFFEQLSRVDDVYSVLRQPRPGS
The experiment in a line: inhibitors of CTDSP1, concentration-response testing, biochemical assay, absorbance-based, actives from ultra-high-throughput screening (AID 540297). It is filed as functional.

The target of experiment [3] is T2, Small ubiquitin-related modifier 2 (Homo sapiens, UniProt P61956). The experiment in a line: inhibitors of SUMO2 protein-protein interaction, dose response, selectivity assay for SUMO1 interaction inhibitor project, biochemical, FRET, human SUMO2, uHTS hits (AID 624384). It is filed as functional. The following applies: read-out: IC50_Mean.
Experiment [4] addresses T3, Tyrosine-protein phosphatase non-receptor type 11 (Homo sapiens, UniProt Q06124).
T3 sequence (Q06124 whole entry): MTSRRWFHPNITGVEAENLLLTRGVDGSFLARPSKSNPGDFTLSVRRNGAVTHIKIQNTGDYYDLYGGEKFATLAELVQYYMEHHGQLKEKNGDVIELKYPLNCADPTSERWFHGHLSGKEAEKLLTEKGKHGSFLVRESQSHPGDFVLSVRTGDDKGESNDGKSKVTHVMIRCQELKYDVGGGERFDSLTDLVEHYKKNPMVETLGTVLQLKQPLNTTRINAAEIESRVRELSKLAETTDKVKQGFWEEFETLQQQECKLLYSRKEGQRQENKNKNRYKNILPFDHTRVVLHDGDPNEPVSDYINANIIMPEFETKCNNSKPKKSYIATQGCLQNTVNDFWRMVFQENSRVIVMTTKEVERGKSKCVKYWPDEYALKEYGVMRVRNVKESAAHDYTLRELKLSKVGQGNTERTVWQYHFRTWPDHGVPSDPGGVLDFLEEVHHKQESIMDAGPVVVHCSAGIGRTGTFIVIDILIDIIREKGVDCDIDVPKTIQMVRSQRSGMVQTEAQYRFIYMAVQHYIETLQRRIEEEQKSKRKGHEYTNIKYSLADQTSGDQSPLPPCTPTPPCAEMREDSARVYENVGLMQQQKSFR
In words: SHP2 phosphatase inhibition, dose response, selectivity assay for STEP inhibitor project, biochemical (AID 602367). It is filed as functional. The following applies: read-out: IC50_Mean.

For experiment [5], the target named is Eukaryotic translation initiation factor 4H (Homo sapiens, UniProt Q15056). In words: human eIF4H binding inhibitors, primary screen, translation initiation inhibitor project, biochemical, uHTS, fluorescence polarization (AID 2012). On the technique in general: Fluorescence polarisation rises when a labelled molecule tumbles more slowly, as on binding a larger partner.

Experiment [6] addresses T2, Small ubiquitin-related modifier 2. The experiment in a line: SUMO2–SIM peptide binding inhibitors, dose response, selectivity assay for SUMO1 interaction inhibitor project, biochemical, fluorescence polarization, uHTS hits (AID 624385). In kind it is functional. The following applies: read-out: IC50_Mean.
The target in experiment [7] is T4, Small ubiquitin-related modifier 1 (Homo sapiens, UniProt P63165). In words: inhibitors of SUMO1 peptide binding, dose response, biochemical, fluorescence polarization, uHTS hits (AID 624382). It is filed as functional. Conditions: read-out: IC50_Mean.
Experiment [8] addresses T5, Tyrosine-protein phosphatase non-receptor type 5 (Homo sapiens, UniProt P54829).
T5 sequence (P54829 whole entry): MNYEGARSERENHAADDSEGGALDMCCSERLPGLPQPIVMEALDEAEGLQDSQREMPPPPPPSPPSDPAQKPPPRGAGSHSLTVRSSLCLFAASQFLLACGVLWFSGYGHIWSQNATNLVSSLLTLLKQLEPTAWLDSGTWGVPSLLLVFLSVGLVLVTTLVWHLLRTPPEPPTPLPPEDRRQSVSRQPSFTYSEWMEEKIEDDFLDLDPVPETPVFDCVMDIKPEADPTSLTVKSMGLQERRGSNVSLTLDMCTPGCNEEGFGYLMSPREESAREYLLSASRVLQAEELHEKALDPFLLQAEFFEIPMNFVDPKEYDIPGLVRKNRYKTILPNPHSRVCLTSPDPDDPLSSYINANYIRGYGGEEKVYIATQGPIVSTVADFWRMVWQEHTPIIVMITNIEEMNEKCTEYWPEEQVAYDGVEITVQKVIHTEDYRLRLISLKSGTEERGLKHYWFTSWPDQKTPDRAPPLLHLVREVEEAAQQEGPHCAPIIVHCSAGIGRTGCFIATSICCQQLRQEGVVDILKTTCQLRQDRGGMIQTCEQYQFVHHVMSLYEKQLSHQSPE
In words: STEP phosphatase inhibitors, confirmation, biochemical, fluorescence intensity, uHTS hits (AID 602372). In kind it is functional. Conditions: read-out: IC50_Mean.

Experiment [9] has as its target T4, Small ubiquitin-related modifier 1. The experiment in a line: inhibitors of SUMO1 partner interactions, dose response, biochemical, FRET (AID 624383). The following applies: read-out: IC50_Mean. It is filed as functional.
For experiment [10], the target named is Dual specificity protein phosphatase 3 (Homo sapiens, UniProt P51452). In words: VHR phosphatase inhibition, dose response, selectivity assay for STEP inhibitor project, biochemical (AID 602374). In kind it is functional. Conditions: read-out: IC50_Mean.
The target in experiment [11] is Polyadenylate-binding protein 1 (Homo sapiens, UniProt P11940). In words: PABP poly(A) RNA binding inhibitors, primary screen, biochemical, fluorescence polarization, uHTS (AID 2014).
Experiment [12] addresses T6, Tyrosine-protein phosphatase non-receptor type 22 (Homo sapiens, UniProt Q9Y2R2).
T6 sequence (Q9Y2R2 whole entry): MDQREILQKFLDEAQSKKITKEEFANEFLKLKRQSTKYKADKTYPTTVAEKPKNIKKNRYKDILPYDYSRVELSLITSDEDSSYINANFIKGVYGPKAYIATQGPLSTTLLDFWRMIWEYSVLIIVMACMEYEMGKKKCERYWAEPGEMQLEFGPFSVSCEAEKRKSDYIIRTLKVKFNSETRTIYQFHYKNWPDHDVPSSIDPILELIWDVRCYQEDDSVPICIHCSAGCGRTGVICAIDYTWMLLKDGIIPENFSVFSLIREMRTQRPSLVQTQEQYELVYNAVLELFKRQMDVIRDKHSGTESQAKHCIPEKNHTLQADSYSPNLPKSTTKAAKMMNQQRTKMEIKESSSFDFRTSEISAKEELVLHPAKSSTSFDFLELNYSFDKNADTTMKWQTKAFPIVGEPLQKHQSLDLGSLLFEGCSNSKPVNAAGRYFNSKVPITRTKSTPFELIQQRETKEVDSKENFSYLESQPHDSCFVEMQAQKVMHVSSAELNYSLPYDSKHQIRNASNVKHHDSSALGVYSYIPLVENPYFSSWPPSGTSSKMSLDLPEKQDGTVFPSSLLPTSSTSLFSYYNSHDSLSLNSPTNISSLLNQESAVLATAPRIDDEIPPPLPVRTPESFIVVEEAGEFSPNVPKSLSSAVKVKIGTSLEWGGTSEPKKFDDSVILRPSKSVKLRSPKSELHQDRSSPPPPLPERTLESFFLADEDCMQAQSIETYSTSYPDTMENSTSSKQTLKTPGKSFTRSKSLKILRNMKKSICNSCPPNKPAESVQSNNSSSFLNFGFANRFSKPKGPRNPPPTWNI
The experiment in a line: PTPN22 phosphatase inhibition, dose response, selectivity assay for STEP inhibitor project, biochemical (AID 624241). It is filed as functional.

Another experiment has as its system INS1. In words: beta cell apoptosis inhibitors, cytokine rescue, dose response, luminescence, retest (AID 449756).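 Also: cell death triggered by IL-1 beta plus TNF-alpha plus IFN-gamma mixture; protective hits raise ATP signal compared with cytokine alone wells.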 It is filed as functional, cell-based. The following applies: Rattus norvegicus.
Experiment [13] addresses Photoreceptor-specific nuclear receptor (Homo sapiens, UniProt Q9Y5X4). It is filed as functional, cell-based.

Calls of active or inactive are those of the source.

T4 sequence (P63165 whole entry): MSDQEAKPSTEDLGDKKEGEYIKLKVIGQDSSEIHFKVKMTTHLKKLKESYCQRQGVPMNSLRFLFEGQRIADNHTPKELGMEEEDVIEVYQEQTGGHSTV
T2 sequence (P61956 whole entry): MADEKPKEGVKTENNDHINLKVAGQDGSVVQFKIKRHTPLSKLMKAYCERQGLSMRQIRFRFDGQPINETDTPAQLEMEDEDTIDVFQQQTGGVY
Chain of Dual specificity protein phosphatase 3 (P51452 whole entry): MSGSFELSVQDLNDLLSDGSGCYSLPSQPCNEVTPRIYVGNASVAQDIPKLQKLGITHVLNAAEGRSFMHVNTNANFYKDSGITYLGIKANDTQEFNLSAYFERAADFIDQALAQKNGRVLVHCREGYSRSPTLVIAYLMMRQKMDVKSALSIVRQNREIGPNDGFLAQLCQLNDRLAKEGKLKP
Chain of Polyadenylate-binding protein 1 (P11940 whole entry): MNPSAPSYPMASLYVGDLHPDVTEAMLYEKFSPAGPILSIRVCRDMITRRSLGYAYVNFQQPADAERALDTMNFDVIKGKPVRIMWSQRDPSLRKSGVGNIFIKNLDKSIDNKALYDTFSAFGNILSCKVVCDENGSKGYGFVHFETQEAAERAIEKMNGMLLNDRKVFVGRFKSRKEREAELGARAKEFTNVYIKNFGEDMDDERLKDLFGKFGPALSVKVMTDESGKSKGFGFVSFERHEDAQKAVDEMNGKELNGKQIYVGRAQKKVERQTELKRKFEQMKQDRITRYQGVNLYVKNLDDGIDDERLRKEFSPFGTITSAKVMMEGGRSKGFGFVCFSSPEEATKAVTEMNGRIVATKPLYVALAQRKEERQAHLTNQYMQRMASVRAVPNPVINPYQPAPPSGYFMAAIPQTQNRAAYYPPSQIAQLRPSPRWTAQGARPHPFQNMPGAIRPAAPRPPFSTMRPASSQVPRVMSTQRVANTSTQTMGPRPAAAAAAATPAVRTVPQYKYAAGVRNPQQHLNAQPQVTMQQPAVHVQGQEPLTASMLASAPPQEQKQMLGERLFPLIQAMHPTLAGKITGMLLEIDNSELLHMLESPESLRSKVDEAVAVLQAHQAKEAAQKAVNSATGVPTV
Chain of ADP-ribosylation factor GTPase-activating protein 1 (Q62848 whole entry, the tested form may be a part): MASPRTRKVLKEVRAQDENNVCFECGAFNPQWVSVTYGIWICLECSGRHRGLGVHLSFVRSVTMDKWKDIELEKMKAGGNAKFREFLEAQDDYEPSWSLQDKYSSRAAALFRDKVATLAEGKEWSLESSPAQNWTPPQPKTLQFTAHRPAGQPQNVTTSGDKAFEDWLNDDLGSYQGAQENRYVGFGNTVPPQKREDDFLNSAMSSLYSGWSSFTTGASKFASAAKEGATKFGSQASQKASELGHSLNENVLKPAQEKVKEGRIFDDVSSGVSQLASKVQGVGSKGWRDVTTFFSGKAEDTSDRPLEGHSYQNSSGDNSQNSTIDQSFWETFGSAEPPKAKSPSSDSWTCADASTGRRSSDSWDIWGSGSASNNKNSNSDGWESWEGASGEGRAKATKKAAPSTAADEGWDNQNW
Chain of Photoreceptor-specific nuclear receptor (Q9Y5X4 whole entry): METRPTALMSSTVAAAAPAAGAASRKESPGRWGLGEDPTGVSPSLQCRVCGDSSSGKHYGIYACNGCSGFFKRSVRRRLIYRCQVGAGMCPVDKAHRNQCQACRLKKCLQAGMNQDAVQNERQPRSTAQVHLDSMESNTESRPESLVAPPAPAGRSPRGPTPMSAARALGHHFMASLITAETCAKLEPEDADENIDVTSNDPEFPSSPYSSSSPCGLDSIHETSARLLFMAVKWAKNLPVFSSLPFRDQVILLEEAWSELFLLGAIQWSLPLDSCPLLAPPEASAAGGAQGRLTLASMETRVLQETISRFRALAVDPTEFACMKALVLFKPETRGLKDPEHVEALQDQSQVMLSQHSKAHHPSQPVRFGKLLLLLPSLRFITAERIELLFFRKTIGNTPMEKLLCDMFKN

As for `Cc1ccc(NC(=O)NNC(=O)COc2ccc([N+](=O)[O-])cc2)cc1C`, the IC50 in experiment [1] was 34.5 µM (inactive).
Take `O=C(Nc1cc([N+](=O)[O-])ccc1O)c1cccc(C(=O)Nc2cc([N+](=O)[O-])ccc2O)c1`: the IC50 in experiment [2] is 1.03 µM (active); in experiment [3], > 66 µM (inactive); in [4], 0.456 µM (active); in experiment [5], 7.71 µM (active); in [6] it was 9.33 µM (active); in [7], 0.751 µM (active). Besides, the IC50 was 1.98 µM (active) in [8]; 53.8 µM (inactive) in experiment [9]; 0.509 µM (active) in experiment [10]; 8.96 µM (active) in [11]; 8.76 µM (active) in experiment [12].
With `Cc1sc2ncnc(NCC(O)c3ccccc3)c2c1C` (centres undefined), the AC50 in the experiment with INS1 is 5.29 µM (active). Besides, the IC50 in experiment [13] was 20.9 µM (inactive).
